Assay results taken from patent US6710081B1, “Erection insufficiency remedies” (priority 1999, dated 2004).

What was measured:
[1] = tested on: corpus cavernosum penis; assay: Intracavernosal pressure increasing activity; assay type: in vivo, beagle; conditions: for Intracavernosal pressure increase: anesthetized beagle, intracavernosal injection, maximum up to 4 minutes from administration
Description: Under anesthesia with thiopental, cannulae were indwelled in left cephalic vein (for infusion) and left femoral artery (for measuring blood pressure and heart rate) of a beagle. The epidermis was dissected from the top of penis to scrotum with an electrocautery to expose the albuguinea on the surface of the cavernous body. A cannula with a needle for measuring the inner pressure and administering a chemical was inserted into the cavernous body and (11α,15α,13E)-9-oxo-11,15-dihydroxy-16-(3-methoxy-methylphenyl)-17,18,19,20-tetranor-5-thiaprost-13-enoic acid methyl ester (methyl ester of the compound of formula (I-1) above, hereinafter abbreviated as methyl ester form) was administered in four kinds of dosage, i.e., 0.2, 2.0, 20, and 200 ng. As controls, 20 ng of PGE1 and physiological saline were used.
Through the cannula inserted into the corpus cavernosum penis, the chemical was injected in amounts of 100 μl and was followed by 300 μl saline injection. A difference between the maximum intra pressures up to 4 minutes from the administration and the intra pressure at the time of administration was taken as the value of intracavernosal pressure increase.

[2] = tested on: rat; conditions: in vivo, iv
Method: It has been confirmed that the compounds of the present invention of formula (I) have sufficiently low toxicity and are sufficiently safe for use as pharmaceutical preparations. For example, the maximal tolerated dose of methyl ester of the compound of formula (I-1) was 30 mg/kg weight or more for rat intravenous administration.

Row | Compound | Intracavernosal pressure increase ([1]; dose 0.2 ng/100 μl) [mmHg] | Intracavernosal pressure increase ([1]; dose 2.0 ng/100 μl) [mmHg] | Intracavernosal pressure increase ([1]; dose 20 ng/100 μl) [mmHg] | Intracavernosal pressure increase ([1]; dose 200 ng/100 μl) [mmHg] | Effect on intracavernosal pressure (in words) ([1]; beagle, 0.2 to 200 ng intracavernosal) | maximal tolerated dose [2] [mg/kg weight]
1 | COCc1cccc(C[C@H](O)/C=C/[C@H]2[C@H](O)CC(=O)[C@@H]2CCSCCCC(=O)OC)c1 [Methyl ester form, (11α,15α,13E)-9-oxo-11,15-dihydroxy-16-(3-methoxy-methylphenyl)-17,18,19,20-tetranor-5-thiaprost-13-enoic acid methyl ester] | 4.3 ± 1.9 | 12.7 ± 8.7 | 28.3 ± 12.3 | 40.7 ± 16.6 | increased the intracavernosal pressure dose-dependently | ≥ 30
2 | CCCCC[C@H](O)/C=C/[C@H]1[C@H](O)CC(=O)[C@@H]1CCCCCCC(=O)O [PGE1, prostaglandin E1, reference compound] |  |  | 29.0 ± 12.5 |  |  | 
